The text below walks through data of paper PMC9785441, “A Broad Spectrum Antiparasitic Activity of Organotin (IV) Derivatives and Its Untargeted Proteomic Profiling Using Leishmania donovani” (Pathogens, 2022).

Like-named read-outs stand apart in the source and are kept apart here.

Assay [1] has as its system T. cruzi (infecting C2C12). Kind of assay: T. cruzi intracellular amastigote assay in C2C12 cells (high content imaging). Format: cell-based, Trypanosoma cruzi. The following applies: for EC50: intracellular amastigotes, 72 h, read-out: EC50 T. cruzi (infecting C2C12). The method, then:
Mouse C2C12 myoblasts (ATCC CRL-1772) were cultivated in RPMI 1640 medium supplemented with 5% FBS and kept at 37 °C and 5% CO2. T. cruzi CAI-72 trypomastigotes were obtained from the supernatant of C2C12 cells infected four to seven days previously. For the assay, 500 C2C12 cells were mixed with 7500 T. cruzi parasites and seeded into 384-well plates at a 50 µL final volume. Test compounds and reference drugs (Benznidazole and K11777) were pre-spotted into the 384 well black bottom plates prior to the addition of cells and parasites with final assay concentration of 20 µM to 0.02 µM. The plates were incubated at 37 °C^, 5% CO2 for 72 h. Cultures were then fixed with 4% formaldehyde and 0.5 µg/mL DAPI (diamidino-2-phenylindole) was added for staining nucleic acids. Plates were kept protected from light for 1 h and then imaged in an ImageXpress Micro XLS automated high content imager (Molecular Devices, San Jose, CA, USA). Imaging and data analysis were performed as described for L. donovani amastigotes on biological triplicates.

The test system of assay [2] is S. mansoni, adult worm. Kind of assay: S. mansoni adult worm ex vivo phenotypic screen (severity score). It is filed as cell-based, Schistosoma mansoni. To be noted: for S. mansoni, adult worm: least concentration at which a severity score of 4 was recorded: after 24 h, tested at 10, 5, 2.5 and 1.25 µM, EC50; for severity score, adult S. mansoni: maximum of 4. An excerpt: The Naval Medical Research Institute (NMRI) isolate of S. mansoni was used. The parasite was cycled between Biomphalaria glabrata snails and male Golden Syrian hamsters (infected at 4–6 weeks of age) as intermediate and definitive hosts, respectively. Hamsters were infected and maintained in accordance with protocols approved by the Institutional Animal Care and Use Committee (IACUC) at the University of California San Diego. The acquisition, preparation and in vitro maintenance of S. mansoni have been described. Briefly, adult worms were harvested from hamsters 42 days post-infection in RPMI or DMEM, and washed five times prior to maintenance overnight at 37 °C and 5% CO2 in Basch medium containing 4% heat-inactivated FBS, 100 µg/mL streptomycin and 100 U/mL penicillin.
Ex vivo screens with adults employed 24-well flat-bottomed plates and approximately 5 males and 2–3 females/well. The complex and often dynamic phenotypic responses that the schistosome parasite is capable of were observed using a Zeiss Axiovert A1 inverted microscope at 24 h. Observations were classified using a constrained nomenclature that involves simple “descriptors” to convey changes in shape, motility and appearance, and the inability of the male worm to adhere to the bottom of the well, compared to DMSO controls. Each descriptor was given a value of 1 and these were added up to yield a “severity score” with a maximum of 4. Evidence of degeneracy or death was awarded a value of 4 as was damage to the tegument (parasite’s surface) on the understanding this would compromise survival in vivo. […] Data were averaged across two experiments for each compound concentration tested.

In assay [3] the test system is T. b. brucei Lister 427 bloodstream forms. Kind of assay: T. brucei bloodstream form viability assay (SYBR Green). The following applies: for EC50: bloodstream forms, 72 h. It is filed as cell-based, Trypanosoma brucei. The method, then: Bloodstream forms of T. b. brucei Lister 427 were cultured in complete HMI-9 medium in T25 suspension culture flasks (Thermo Scientific, Cat. 12-566-84) and maintained at 37 °C and 5% CO2. Trypanosomes were kept in log-phase growth and passaged every 48 h. […] Pentamidine were used as a positive control for T. brucei assay. Compounds were diluted with fresh HMI-9 medium (99 µL/well). Parasites in log-phase were suspended at 2 × 10^5 parasites/mL in HMI-9 medium and then added to each well (100 µL) to give 2 × 10^4 trypanosomes/well. Assay plates were incubated at 37 °C and 5% CO2 for 72 h. Parasite lysate was obtained by addition of 50 µL/well of lysis solution (0.012% saponin, 0.12% Triton X-100, 7.5 mM ETDA, 30 mM Tris, pH 7.5) containing 0.3 µL/mL SYBR Green I (10,000× in DMSO; Invitrogen, Carlsbad, CA, USA). Assay plates were incubated in the dark for 1 h at room temperature. Fluorescence was measured at 485 nm excitation and 535 nm emission wavelengths using an EnVision multilabel plate reader (PerkinElmer, Waltham, MA, USA). In each assay plate, parasite viability was normalized relative to positive (pentamidine) and negative (0.5% DMSO) controls in each assay plate. Assays were performed in biological and technical duplicates, and dose–response and EC50 data were generated with GraphPad Prism 9 using a sigmoidal four parameter logistic curve.

For assay [4], the system named is L. donovani intracellular amastigotes. Kind of assay: L. donovani intracellular amastigote assay in B10R cells (high content imaging). Format: cell-based, Leishmania donovani. The method, then:
For the intracellular amastigote stage assay, L. donovani was incubated at a density of 1 × 10^6 parasites/mL for six days at 29 °C before infection to enrich the proportion of metacyclic promastigotes. B10R monocyte cell lines were cultured in RPMI supplemented with 10% FBS and 1%penicillin/streptomycin at 37 °C in 5% CO2. After 72 h, cells were counted with a hemocytometer and mixed with the six-day-old parasites. Into 384-well assay plates, that had been pre-spotted with compounds diluted 1000-fold in DMSO, with final assay concentrations ranging from 20 µM to 0.02 µM and tested in biological triplicates., 500 B10R cells and 7000 parasites were dispensed per well in a final volume of 50 µL using a Multidrop Combi liquid dispenser (ThermoScientific, Waltham, MA, USA). Plates were incubated at 37 °C and 5% CO2 for 72 h. Cultures were then fixed with 4% formaldehyde solution for 30 min and stained with 0.5 µg/mL DAPI (diamidino-2-phenylindole). Plates were then imaged using an ImageXpress Micro XLS automated high content imager (Molecular Devices, San Jose, CA, USA) using a 10× air objective. A custom image analysis module generated in ImageXpress was used to count the nuclei of host and parasite cells. EC50 values were obtained using the GraphPad Prism 9 Software with biological triplicates.

For assay [5], the system named is E. histolytica HM1:IMSS trophozoites. The assay can be described thus: E. histolytica trophozoite viability assay (CellTiter-Glo). It is filed as cell-based, Entamoeba histolytica. The following applies: 48 h. The method, then:
Trophozoites of E. histolytica HM1:IMSS were maintained in vitro as described in TYI-S-33 medium supplemented with penicillin (100 U/mL) and streptomycin (100 µg/mL). Test compounds were serially diluted and transferred to a white solid bottomed 96-well tissue culture plate (E&K Scientific, Swedesboro, NJ, USA) followed by addition of 5000 E. histolytica trophozoites per well for a final volume of 100 µL TYI-S-33 medium and a final concentration of compounds ranging from 50 to 0.39 µM. Metronidazole were used as positive control and assay plates were incubated for 48 h at 37 °C. The plates maintained kept anaerobically using the GasPak EZ Anaerobic Gas Generating Pouch System (VWR). Parasite viability was measured in triplicate using the CellTiter-Glo luminescence kit (Promega G9243) in an Envision plate reader (Perkin Elmer, Waltham, MA, USA). EC50 values were obtained using GraphPad Prism 9 Software.
For orientation: Cellular ATP, detected with luciferase, serves as a proxy for viable cell number.

Setting [6] is: at all concentrations (10, 5, 2.5 and 1.25 µM), 24 h.
The mark [7] stands for this setting: in B10R cells, 72 h, read-out: EC50 L. donovani ntracelular amastigotes.

Regarding `COc1ccc(NC(=O)CCC(=O)[O][Sn]([CH]2CCCCC2)([CH]2CCCCC2)[CH]2CCCCC2)cc1` [MS26Cy3], the EC50 (in general, the concentration needed to bring the measured effect to its halfway point) in assay [1] was determined as 0.3 µM; in assay [3], 0.08 µM. The “S. mansoni, adult worm: least concentration at which a severity score of 4 was recorded” value (“S. mansoni, adult worm” below) in assay [2] came to 1.25 µM. In addition, the “severity score, adult S. mansoni” value in assay [2] (setting [6]) is recorded as 4.
In the case of `COc1ccc(NC(=O)CCC(=O)[O][Sn]([c]2ccccc2)([c]2ccccc2)[c]2ccccc2)cc1` [MS26Ph3], the EC50 in assay [4] (setting [7]) is 9.1 µM; in assay [1] it was above 20 µM; in assay [3] it was 0.09 µM. In addition, the “S. mansoni, adult worm” value in assay [2] is on record as 1.25 µM. Moreover, the “severity score, adult S. mansoni” value in assay [2] (setting [6]) came to 4.
On to `CCC[CH2][Sn]([CH2]CCC)([CH2]CCC)[O]C(=O)CCC(=O)Nc1ccc(OC)cc1` [MS26Bu3], for which the EC50 in assay [5] came to 8.7 µM; in assay [4] (setting [7]), 0.21 µM; in assay [1], 0.11 µM; in assay [3], 0.05 µM. For the same compound, in assay [2], the “S. mansoni, adult worm” value stood at 1.25 µM. In addition, in assay [2] (setting [6]), the “severity score, adult S. mansoni” value was 4.
As to `C=[CH][Sn]([CH]=C)([O]C(=O)CCC(=O)Nc1ccc(OC)cc1)[O]C(=O)CCC(=O)Nc1ccc(OC)cc1` [MS26vin2], the EC50 was above 20 µM in assay [4] (setting [7]), above 20 µM in assay [1] and above 4 µM in assay [3]. For the same compound, in assay [2] (10 µM, 24 h), the “severity score, adult S. mansoni” value is on record as “zero”. Further, the “S. mansoni, adult worm” value in assay [2] is above 10.0 µM.
Turning to `COc1ccc(NC(=O)CCC(=O)[O][Sn]([CH3])([CH3])[CH3])cc1` [MS26Me3], the EC50 in assay [4] (setting [7]) was 3.26 µM; in assay [1] it was above 20 µM; in assay [3] it was above 4 µM. The “response of adult S. mansoni” value in assay [2] (5 µM, 24 h) is reported as “the same response as MS26Oct2 at 10 µM”. Also, the “severity score, adult S. mansoni” value in assay [2] (10 µM, 24 h) is reported as “lethal”. In addition, the “S. mansoni, adult worm” value in assay [2] was 10 µM.
For the compound `COc1ccc(NC(=O)CCC(=O)[O-])cc1.[Na+]` [MS26Na, sodium 4-(4-methoxyphenylamino)-4 oxobutanoate], the EC50 was 3.88 µM in assay [4] (setting [7]), 4.27 µM in assay [1] and above 4 µM in assay [3]. In assay [2] (10 µM, 24 h), the “severity score, adult S. mansoni” value is given as “zero”. Moreover, the “S. mansoni, adult worm” value in assay [2] was above 10.0 µM.
Take `COc1ccc(NC(=O)CCC(=O)O)cc1` [MS26, 4-(4-methoxyphenylamino)-4 oxobutanoic acid]: the EC50 in assay [5] (Entamoeba histolytica) was above 10 µM; in assay [4] (Leishmania donovani, range over L. donovani and T. cruzi intracellular stages and both parent compounds, read-out: EC50 values against the intracellular stages of both parasites) it was 1.08 to 4.27 µM; in assay [4] (setting [7]), 1.08 µM; in assay [1] (Trypanosoma cruzi, C2C12, 72 h), 3.21 µM; in assay [3] (Trypanosoma brucei), above 4 µM. Further, in assay [2] (10 µM, 24 h), the “severity score, adult S. mansoni” value was “zero”. The “S. mansoni, adult worm” value in assay [2] is on record as above 10.0 µM.
As for `CCC[CH2][Sn]([CH2]CCC)([O]C(=O)CCC(=O)Nc1ccc(OC)cc1)[O]C(=O)CCC(=O)Nc1ccc(OC)cc1` [MS26Bu2], the EC50 in assay [4] (setting [7]) stood at 0.28 µM; in assay [1], 0.53 µM; in assay [3], 0.29 µM. The “S. mansoni, adult worm” value in assay [2] is 1.25 µM. Besides, the “severity score, adult S. mansoni” value in assay [2] (setting [6]) is on record as 4.
With `C[CH2][Sn]([CH2]C)([CH2]C)[O]C(=O)CCC(=O)Nc1ccc(OC)cc1` [MS26Et3], the EC50 came to 5.6 µM in assay [5], 0.19 µM in assay [4] (setting [7]), 0.24 µM in assay [1] and 0.09 µM in assay [3]. The “L. donovani intracellular parasites eliminated” value in assay [4] (5 µM) is above 95%. Further, in assay [1] (5 µM), the “T. cruzi intracellular parasites eliminated” value is above 95%. Moreover, in assay [2] (setting [6]), the “severity score, adult S. mansoni” value was 4. In assay [3] (5 µM), this compound showed a T. brucei eliminated above 99%.
Regarding `CCC[CH2][Sn]([Cl])([Cl])[O]C(=O)CCC(=O)Nc1ccc(OC)cc1` [MS26BuSnCl2], the EC50 in assay [4] (setting [7]) was above 20 µM; in assay [1], above 20 µM; in assay [3], above 4 µM. For the same compound, in assay [2] (10 µM, 24 h), the “severity score, adult S. mansoni” value is reported as “zero”. In addition, the “S. mansoni, adult worm” value in assay [2] was above 10.0 µM.
